Measurements published in ChEMBL document CHEMBL1777763, “Discovery of a nortropanol derivative as a potent and orally active GPR119 agonist for type 2 diabetes” (Bioorg Med Chem Lett, 2011).
Activity calls are given as the source filed them. The rule behind the calls is not given here.

Key:
[1] = molecular target: T1, Glucose-dependent insulinotropic receptor (Mus musculus, UniProt Q7TQP3); test: Agonist activity at mouse GPR119 expressed in HEK293 cells assessed as stimulation of cMAP level by cell-based cAMP assay; format: functional
T1 sequence (Q7TQP3 whole entry): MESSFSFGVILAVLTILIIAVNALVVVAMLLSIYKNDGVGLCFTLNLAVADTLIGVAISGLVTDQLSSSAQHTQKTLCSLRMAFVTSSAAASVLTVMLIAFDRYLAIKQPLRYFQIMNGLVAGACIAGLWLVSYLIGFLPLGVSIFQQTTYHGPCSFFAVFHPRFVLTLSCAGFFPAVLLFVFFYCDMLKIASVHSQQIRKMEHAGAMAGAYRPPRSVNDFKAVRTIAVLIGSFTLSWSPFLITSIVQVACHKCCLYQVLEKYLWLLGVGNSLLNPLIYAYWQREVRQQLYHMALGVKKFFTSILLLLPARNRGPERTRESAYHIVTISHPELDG

Mus musculus [2] = test: Antidiabetic activity in overnight fasted mouse model assessed as blood glucose level at 3 mg/kg, po followed by 30 mins after administered 3 g/kg, po glucose by oral glucose tolerance test (reference value: 100 %); format: functional
Rattus norvegicus [3] = test: AUC (0 to 6 hrs) in rat at 10 mg/kg, po; format: ADME, organism-based, Plasma; parameters: time < 6 hr, dose 10 mg/kg, route oral; conditions: in vivo
[4] = molecular target: T2, Glucose-dependent insulinotropic receptor (Mus musculus) (UniProt Q7TQP3); test: Agonist activity at mouse GPR119 expressed in HEK293 cells assessed as maximal stimulation of cMAP level by cell-based cAMP assay relative to 21; format: functional
T2 sequence (whole entry): T1 sequence (Q7TQP3 whole entry)

[5] = Plasma concentration in lean mouse at 30 mg/kg, po after 60 mins; format: ADME, organism-based; parameters: dose 30 mg/kg, route oral
Mus musculus [6] = test: Antidiabetic activity in laen mouse model assessed as reduction in blood glucose level at 30 mg/kg, po up to 60 mins by oral glucose tolerance test; format: functional; conditions: 1 h
[7] = Plasma concentration in mouse at 3 mg/kg, po after 1 hr; format: ADME, organism-based; parameters: dose 3 mg/kg, route oral
[8] = Plasma concentration in lean mouse at 3 mg/kg, po after 60 mins; format: ADME, organism-based; parameters: dose 3 mg/kg, route oral
[9] = Plasma concentration in lean mouse at 10 mg/kg, po after 60 mins; format: ADME, organism-based; parameters: dose 10 mg/kg, route oral
[10] = Cmax in monkey at 3 mg/kg, po; format: ADME, organism-based, Macaca mulatta; parameters: dose 3 mg/kg, route oral; conditions: rhesus monkey, in vivo
[11] = molecular target: Probable G-protein coupled receptor 160 (Homo sapiens) (UniProt Q9UJ42); test: Inhibition of GPCR-1 at 10 uM
[12] = Tmax in monkey at 3 mg/kg, po; format: ADME, organism-based, Macaca mulatta; parameters: dose 3 mg/kg, route oral; conditions: rhesus monkey, in vivo
Rhesus monkey = test: AUC (0 to 24 hrs) in monkey at 3 mg/kg, po; format: ADME, organism-based, Macaca mulatta, Plasma; parameters: time < 24 hr, dose 3 mg/kg, route oral; conditions: in vivo
Cytochrome P450 2C9 = Cytochrome P450 2C9 (Homo sapiens, UniProt P11712); test: Inhibition of CYP2C9; format: ADME
Mus musculus [13] = test: Antidiabetic activity in laen mouse model assessed as reduction in blood glucose level at 10 mg/kg, po up to 60 mins by oral glucose tolerance test; format: functional; conditions: 1 h
Rattus norvegicus [14] = test: Antidiabetic activity in lean anesthetized rat hyperglycemic clamp model assessed as increase in insulin level at 1 mg/kg, iv relative to control
Cytochrome P450 2D6 = Cytochrome P450 2D6 (Homo sapiens, UniProt P10635); test: Inhibition of CYP2D6; format: ADME
hERG (KCNH2) = hERG (KCNH2) (Homo sapiens, UniProt Q12809); test: Inhibition of human ERG at 10 uM
Mus musculus [15] = test: Antidiabetic activity in laen mouse model assessed as reduction in blood glucose level at 3 mg/kg, po up to 60 mins by oral glucose tolerance test; format: functional; conditions: 1 h
Salmonella typhimurium = test: Genotoxicity in Salmonella Typhimurium by Ames test; format: toxicity, organism-based; conditions: salmonella enterica subsp. enterica serovar typhimurium
PXR (NR1I2) = molecular target: T3, PXR (NR1I2) (Homo sapiens, UniProt O75469); test: Inhibition of human PXR transfected in HepG2 cells at 10 uM; format: cell-based; conditions: HepG2 cells transfected with human PXR
T3 sequence (O75469 whole entry): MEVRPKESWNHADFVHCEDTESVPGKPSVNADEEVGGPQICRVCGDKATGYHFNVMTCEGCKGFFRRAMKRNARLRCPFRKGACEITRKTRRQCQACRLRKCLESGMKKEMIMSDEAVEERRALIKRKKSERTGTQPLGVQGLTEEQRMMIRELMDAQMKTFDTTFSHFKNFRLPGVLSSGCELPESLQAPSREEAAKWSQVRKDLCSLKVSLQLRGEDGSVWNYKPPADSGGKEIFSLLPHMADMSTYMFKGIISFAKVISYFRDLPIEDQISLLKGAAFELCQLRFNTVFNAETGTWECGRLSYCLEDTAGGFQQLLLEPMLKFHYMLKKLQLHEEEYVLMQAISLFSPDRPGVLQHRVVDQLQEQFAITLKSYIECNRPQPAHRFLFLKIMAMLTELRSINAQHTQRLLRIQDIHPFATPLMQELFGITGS

Cytochrome P450 3A4 = Cytochrome P450 3A4 (Homo sapiens, UniProt P08684); test: Inhibition of CYP3A4; format: ADME
Sequence of Cytochrome P450 3A4 (P08684 whole entry): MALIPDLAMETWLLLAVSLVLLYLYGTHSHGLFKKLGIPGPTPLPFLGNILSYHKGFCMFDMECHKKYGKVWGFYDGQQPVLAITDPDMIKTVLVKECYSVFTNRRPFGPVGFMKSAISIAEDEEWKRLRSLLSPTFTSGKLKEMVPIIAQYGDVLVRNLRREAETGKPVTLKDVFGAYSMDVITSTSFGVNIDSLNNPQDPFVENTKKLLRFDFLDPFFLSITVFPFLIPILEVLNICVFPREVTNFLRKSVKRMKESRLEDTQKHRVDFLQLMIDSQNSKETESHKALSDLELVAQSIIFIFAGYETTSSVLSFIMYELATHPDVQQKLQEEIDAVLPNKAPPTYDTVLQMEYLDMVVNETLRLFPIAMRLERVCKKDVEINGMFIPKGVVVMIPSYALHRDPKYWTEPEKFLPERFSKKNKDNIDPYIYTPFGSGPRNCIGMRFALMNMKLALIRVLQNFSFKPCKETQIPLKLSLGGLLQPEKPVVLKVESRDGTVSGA

Sequence of Cytochrome P450 2D6 (P10635 whole entry): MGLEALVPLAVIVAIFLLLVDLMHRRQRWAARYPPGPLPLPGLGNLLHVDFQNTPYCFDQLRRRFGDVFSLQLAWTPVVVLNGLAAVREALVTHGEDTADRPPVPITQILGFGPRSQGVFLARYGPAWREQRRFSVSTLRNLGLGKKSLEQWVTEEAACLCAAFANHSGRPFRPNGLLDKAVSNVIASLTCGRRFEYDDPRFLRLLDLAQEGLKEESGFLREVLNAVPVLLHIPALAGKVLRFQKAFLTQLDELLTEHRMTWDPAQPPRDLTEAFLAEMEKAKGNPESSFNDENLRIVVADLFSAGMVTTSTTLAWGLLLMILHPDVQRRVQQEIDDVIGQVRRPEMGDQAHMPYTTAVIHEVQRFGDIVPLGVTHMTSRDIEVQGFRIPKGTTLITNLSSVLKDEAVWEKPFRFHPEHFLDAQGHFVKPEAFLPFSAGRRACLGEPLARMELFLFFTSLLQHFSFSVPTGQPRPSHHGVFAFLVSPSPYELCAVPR
Sequence of hERG (KCNH2) (Q12809 whole entry): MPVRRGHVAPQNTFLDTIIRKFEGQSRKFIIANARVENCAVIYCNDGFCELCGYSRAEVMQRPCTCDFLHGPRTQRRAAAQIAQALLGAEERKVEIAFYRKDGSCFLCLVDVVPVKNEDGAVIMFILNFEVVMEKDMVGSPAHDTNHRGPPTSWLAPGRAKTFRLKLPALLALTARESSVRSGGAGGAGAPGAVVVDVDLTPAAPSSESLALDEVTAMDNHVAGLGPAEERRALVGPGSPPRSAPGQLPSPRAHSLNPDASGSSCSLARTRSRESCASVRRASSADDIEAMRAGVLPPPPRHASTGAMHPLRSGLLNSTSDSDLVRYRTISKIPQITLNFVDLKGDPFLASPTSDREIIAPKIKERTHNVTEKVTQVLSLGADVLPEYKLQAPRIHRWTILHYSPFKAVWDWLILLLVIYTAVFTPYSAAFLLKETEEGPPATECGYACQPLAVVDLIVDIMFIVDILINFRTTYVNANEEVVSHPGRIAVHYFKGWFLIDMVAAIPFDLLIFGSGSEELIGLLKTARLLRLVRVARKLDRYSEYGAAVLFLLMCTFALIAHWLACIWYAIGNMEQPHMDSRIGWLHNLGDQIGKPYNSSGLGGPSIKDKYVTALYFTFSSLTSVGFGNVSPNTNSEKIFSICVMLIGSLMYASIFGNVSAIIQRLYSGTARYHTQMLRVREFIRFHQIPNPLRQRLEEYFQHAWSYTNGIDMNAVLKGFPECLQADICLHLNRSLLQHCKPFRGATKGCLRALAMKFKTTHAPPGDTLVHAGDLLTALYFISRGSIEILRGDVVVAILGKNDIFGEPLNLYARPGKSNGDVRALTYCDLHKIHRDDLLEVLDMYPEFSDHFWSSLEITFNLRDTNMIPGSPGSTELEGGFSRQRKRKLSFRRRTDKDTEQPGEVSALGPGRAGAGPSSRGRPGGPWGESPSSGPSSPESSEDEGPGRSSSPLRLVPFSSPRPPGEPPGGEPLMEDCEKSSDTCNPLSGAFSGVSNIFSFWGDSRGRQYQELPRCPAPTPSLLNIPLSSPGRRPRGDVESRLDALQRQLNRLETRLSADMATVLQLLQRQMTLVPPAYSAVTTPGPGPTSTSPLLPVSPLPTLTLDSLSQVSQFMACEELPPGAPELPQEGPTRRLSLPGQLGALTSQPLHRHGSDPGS
Sequence of Probable G-protein coupled receptor 160 (Homo sapiens) (Q9UJ42 whole entry): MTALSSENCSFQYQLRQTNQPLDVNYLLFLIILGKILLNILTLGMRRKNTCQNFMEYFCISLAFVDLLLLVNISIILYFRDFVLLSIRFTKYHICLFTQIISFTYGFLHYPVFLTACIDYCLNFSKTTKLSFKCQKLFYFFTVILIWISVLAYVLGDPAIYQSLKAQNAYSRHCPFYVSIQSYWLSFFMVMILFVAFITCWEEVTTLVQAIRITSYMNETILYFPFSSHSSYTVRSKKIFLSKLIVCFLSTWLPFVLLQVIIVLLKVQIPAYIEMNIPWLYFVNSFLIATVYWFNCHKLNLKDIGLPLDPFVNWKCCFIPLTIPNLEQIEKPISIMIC
Sequence of Cytochrome P450 2C9 (P11712 whole entry): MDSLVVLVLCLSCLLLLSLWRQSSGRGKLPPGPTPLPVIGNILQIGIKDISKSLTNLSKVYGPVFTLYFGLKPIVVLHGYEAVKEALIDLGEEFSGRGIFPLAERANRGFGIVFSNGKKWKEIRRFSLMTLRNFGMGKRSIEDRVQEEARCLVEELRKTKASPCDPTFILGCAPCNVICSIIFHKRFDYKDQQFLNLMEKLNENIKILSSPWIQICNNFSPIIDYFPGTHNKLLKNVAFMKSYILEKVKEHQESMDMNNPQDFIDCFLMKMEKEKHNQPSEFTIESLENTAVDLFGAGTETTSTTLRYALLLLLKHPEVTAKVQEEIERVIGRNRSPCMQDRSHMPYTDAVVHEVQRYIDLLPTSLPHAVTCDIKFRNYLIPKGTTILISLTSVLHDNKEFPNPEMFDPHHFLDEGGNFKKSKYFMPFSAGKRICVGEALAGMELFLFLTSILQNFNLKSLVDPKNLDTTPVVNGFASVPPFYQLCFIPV

Row | SMILES | EC50 [1] [µM] | Activity [4] [%] | other results
1 | CC(C)OC(=O)N1CCC(Oc2cc(Oc3ccc(S(C)(=O)=O)cc3F)ncn2)CC1 | 0.403 | 100 | Blood glucose (% of vehicle) (Mus musculus [2]): 78%; AUC (Rattus norvegicus [3]): 20.7 µM·h; concentration at 1 h [5]: 12700 nM; inhibition in vivo at 30 mg/kg (Mus musculus [6]): 47%; concentration at 1 h [7]: 480 nM
2 | Cc1ncccc1Oc1ncnc(O[C@H]2C[C@@H]3CC(F)[C@@H](C2)N3S(=O)(=O)C2CC2)c1C (some centres not stated) | 0.71 | 74 | 
3 | Cc1ncccc1Oc1ncnc(O[C@H]2C[C@@H]3CC(F)(F)[C@@H](C2)N3S(=O)(=O)C2CC2)c1C | 0.22 | 52 | 
4 | Cc1ncccc1Oc1ncnc(O[C@H]2C[C@H]3CC[C@@H](C2)N3C(=O)OC(C)C2CC2)c1C (some centres not stated) | 0.059 | 31 | 
5 | CCCCS(=O)(=O)N1C2CC[C@H]1C[C@@H](Oc1ncnc(Oc3cccnc3C)c1C)C2 (single isomer, unassigned) | 0.026 | 29 | 
6 | Cc1ncccc1Oc1ncnc(O[C@H]2CC3CC[C@@H](C2)N3C(=O)OC(C)C)c1C (single isomer, unassigned) | 0.055 | 20 | Blood glucose (% of vehicle) (Mus musculus [2]): 100%; AUC (Rattus norvegicus [3]): 0.175 µM·h; concentration at 1 h [7]: 193 nM
7 | Cc1ncccc1Oc1ncnc(O[C@H]2CC3CC[C@@H](C2)N3C(=O)OC2(C)CC2)c1C (single isomer, unassigned) | > 30 | 12 | Blood glucose (% of vehicle) (Mus musculus [2]): 95%; AUC (Rattus norvegicus [3]): 2.84 µM·h; concentration at 1 h [7]: 130 nM
8 | CCOC(=O)N1C2CC[C@H]1C[C@@H](Oc1ncnc(Oc3cccnc3C)c1C)C2 (single isomer, unassigned) | 0.324 | 25 | 
9 | Cc1ncccc1Oc1ncnc(O[C@H]2CC3CC[C@@H](C2)N3C(=O)OCC(F)(F)F)c1C (single isomer, unassigned) | 10.4 | 20 | 
10 | Cc1ncccc1Oc1ncnc(O[C@H]2CC3CC[C@@H](C2)N3C(=O)OCC2CC2)c1C (single isomer, unassigned) | 7.57 | 33 | 
11 | Cc1ncccc1Oc1ncnc(O[C@H]2CC3CC[C@@H](C2)N3S(=O)(=O)CC(F)(F)F)c1C (single isomer, unassigned) | 0.66 | 62 | 
12 | Cc1ncccc1Oc1ncnc(O[C@H]2CC3CC[C@@H](C2)N3S(=O)(=O)C2CC2)c1C (single isomer, unassigned) | 0.063 | 76 | Blood glucose (% of vehicle) (Mus musculus [2]): 87%; AUC (Rattus norvegicus [3]): 0.879 µM·h; concentration at 1 h [7]: 2330 nM
13 | CCCS(=O)(=O)N1C2CC[C@H]1C[C@@H](Oc1ncnc(Oc3cccnc3C)c1C)C2 (single isomer, unassigned) | 0.053 | 49 | 
14 | Cc1ncccc1Oc1ncnc(O[C@H]2CC3CC[C@@H](C2)N3S(=O)(=O)CCC(F)(F)F)c1C (single isomer, unassigned) | 0.25 | 62 | 
15 | Cc1ncccc1Oc1ncnc(O[C@H]2CC3CC[C@@H](C2)N3S(=O)(=O)CC(C)C)c1C (single isomer, unassigned) | 0.07 | 69 | AUC (Rattus norvegicus [3]): 0 µM·h
16 | Cc1ncccc1Oc1ncnc(O[C@H]2CC3CC[C@@H](C2)N3S(=O)(=O)c2ccc(Cl)s2)c1C (single isomer, unassigned) | 0.145 | 77 | 
17 | Cc1ncccc1Oc1ncnc(O[C@H]2CC3CC[C@@H](C2)N3S(=O)(=O)c2ccc(F)cc2)c1C (single isomer, unassigned) | 0.35 | 78 | 
18 | Cc1c(Nc2ccc(S(C)(=O)=O)cc2F)ncnc1O[C@H]1CC2CC[C@@H](C1)N2S(=O)(=O)C1CC1 (single isomer, unassigned) | 0.64 | 88 | 
19 | Cc1c(Oc2ccccc2Cl)ncnc1O[C@H]1CC2CC[C@@H](C1)N2S(=O)(=O)C1CC1 (single isomer, unassigned) | 0.082 | 58 | 
20 | Cc1c(Oc2ccccc2C#N)ncnc1O[C@H]1CC2CC[C@@H](C1)N2S(=O)(=O)C1CC1 (single isomer, unassigned) | 0.068 | 74 | Blood glucose (% of vehicle) (Mus musculus [2]): 88%; AUC (Rattus norvegicus [3]): 0.461 µM·h; concentration at 1 h [7]: 290 nM
21 | Cc1c(Oc2ccc(Cl)cc2C#N)ncnc1O[C@H]1CC2CC[C@@H](C1)N2S(=O)(=O)C1CC1 (single isomer, unassigned) | 0.29 | 44 | 
22 | Cc1ncccc1Nc1ncnc(O[C@H]2CC3CC[C@@H](C2)N3S(=O)(=O)C2CC2)c1C (single isomer, unassigned) | 2 | 110 | 
23 | Cc1c(Nc2ccccc2C#N)ncnc1O[C@H]1CC2CC[C@@H](C1)N2S(=O)(=O)C1CC1 (single isomer, unassigned) | 0.18 | 80 | 
24 | Cc1c(Nc2ccc(F)cc2C#N)ncnc1O[C@H]1CC2CC[C@@H](C1)N2S(=O)(=O)C1CC1 (single isomer, unassigned) | 0.82 | 110 | 
25 | Cc1c(Nc2ccc(C#N)cc2F)ncnc1O[C@H]1CC2CC[C@@H](C1)N2S(=O)(=O)C1CC1 (single isomer, unassigned) | 0.22 | 84 | Blood glucose (% of vehicle) (Mus musculus [2]): 95%
26 | Cc1c(Nc2ccc(C#N)cc2Cl)ncnc1O[C@H]1CC2CC[C@@H](C1)N2S(=O)(=O)C1CC1 (single isomer, unassigned) | 0.14 | 110 | concentration at 1 h [8]: 400 nM; Blood glucose (% of vehicle) (Mus musculus [2]): 91%; AUC (Rattus norvegicus [3]): 2.17 µM·h; concentration at 1 h [9]: 800 nM; Cmax [10]: 997 nM; inhibition [11]: < 30%; Tmax [12]: 4.5 h; AUC (Rhesus monkey): 16.5 µM·h; IC50 (Cytochrome P450 2C9): > 20 µM; inhibition in vivo at 10 mg/kg (Mus musculus [13]): 30%; concentration at 1 h [5]: 1400 nM; Activity (Rattus norvegicus [14]): Active; IC50 (Cytochrome P450 2D6): > 20 µM; inhibition at 10 µM (hERG (KCNH2)): 9%; inhibition in vivo at 3 mg/kg (Mus musculus [15]): 28%; Activity (Salmonella typhimurium): Non-toxic; inhibition in vivo at 30 mg/kg (Mus musculus [6]): 39%; inhibition at 10 µM (PXR (NR1I2)): 0.09%; concentration at 1 h [7]: 275 nM; IC50 (Cytochrome P450 3A4): > 20 µM
27 | Cc1ncccc1Oc1ncnc(O[C@H]2CC3C=C[C@@H](C2)N3C(=O)OC(C)C)c1C (single isomer, unassigned) | 0.052 | 48 | 
28 | Cc1ncccc1Oc1ncnc(O[C@H]2CC3C=C[C@@H](C2)N3S(=O)(=O)C2CC2)c1C (single isomer, unassigned) | 0.24 | 78 | 
29 | Cc1ncccc1Oc1ncnc(O[C@@H]2CC3CC[C@@H](C2)N3C(=O)OC(C)(C)C)c1C (single isomer, unassigned; 20f) | 0.3 | 20 | 
